The results in this text go back to publication PMC2669215, “SVOP Is a Nucleotide Binding Protein” (PLoS ONE, 2009).

Test [1] deals with T1, SVOP-FLAG (Rattus norvegicus, UniProt Q9Z2I7).
T1 construct: full length (548 residues), C-terminal FLAG tag (DYKDDDK) kept; expressed in HEK293, purified on anti-FLAG M2 gel
T1 sequence (Q9Z2I7 1-548): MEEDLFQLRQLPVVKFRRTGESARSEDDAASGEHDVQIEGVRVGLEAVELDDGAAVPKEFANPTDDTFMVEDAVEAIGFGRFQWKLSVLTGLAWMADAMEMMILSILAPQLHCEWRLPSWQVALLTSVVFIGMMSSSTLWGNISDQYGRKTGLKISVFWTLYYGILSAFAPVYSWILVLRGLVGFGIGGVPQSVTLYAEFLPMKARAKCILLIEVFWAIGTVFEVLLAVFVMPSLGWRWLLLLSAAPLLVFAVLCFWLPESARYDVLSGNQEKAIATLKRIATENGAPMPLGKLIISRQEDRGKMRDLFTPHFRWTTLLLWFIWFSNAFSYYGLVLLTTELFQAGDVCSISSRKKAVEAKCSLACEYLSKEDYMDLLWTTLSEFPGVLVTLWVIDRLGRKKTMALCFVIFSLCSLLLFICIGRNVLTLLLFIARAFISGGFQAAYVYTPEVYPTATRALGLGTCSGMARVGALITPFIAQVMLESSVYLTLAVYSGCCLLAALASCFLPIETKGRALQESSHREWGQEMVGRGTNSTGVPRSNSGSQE
Description: competition with 8-azido-ATP[γ] biotin photoaffinity labeling, western blot. The conditions noted are these: read-out: half maximum inhibition concentration. In kind it is binding.

The target in test [2] is T1, SVOP-FLAG. The test is described as above. In kind it is binding. The conditions noted are these: 100 µM 8-azido-ATP[γ] biotin, pH 7.4, on ice.

In the case of `NC(=O)c1ccc[n+]([C@@H]2O[C@H](COP(=O)(O)OP(=O)(O)OC[C@H]3O[C@@H](n4cnc5c(N)ncnc54)[C@H](O)[C@@H]3O)[C@@H](O)[C@H]2O)c1` [NAD], on SVOP-FLAG [1], the IC50 is approximately 250 µM.
`Cc1cn([C@H]2C[C@H](O)[C@@H](COP(=O)(O)OP(=O)(O)OP(=O)(O)O)O2)c(=O)[nH]c1=O` [TTP]: the “decrease of labeling at 1 mM” value on SVOP-FLAG [2] is “TTP and CTP produced the least inhibition”.
Still for that read-out and setting: in the case of `Nc1nc2c(ncn2[C@@H]2O[C@H](COP(=O)(O)OP(=O)(O)OP(=O)(O)O)[C@@H](O)[C@H]2O)c(=O)[nH]1` [GTP] it was “ATP, GTP and NAD displayed the strongest inhibition”.
Turning to `Nc1ncnc2c1ncn2[C@@H]1O[C@H](COP(=O)(O)OP(=O)(O)OP(=O)(O)O)[C@@H](O)[C@H]1O` [ATP], the IC50 at SVOP-FLAG [1] was approximately 750 µM.
As for `Nc1ccn([C@@H]2O[C@H](COP(=O)(O)OP(=O)(O)OP(=O)(O)O)[C@@H](O)[C@H]2O)c(=O)n1` [CTP], the “decrease of labeling at 1 mM” value on SVOP-FLAG [2] is “TTP and CTP produced the least inhibition”.
